According to patent US4442044A, “Process for preparing monoesters and diesters of N-alkyl substituted amino methyl phosphonic acid” (priority 1983, dated 1984):

Assays:
Assay in all cases: post-emergent herbicidal activity, greenhouse
Assay type in all cases: in vivo
Conditions in all cases: Table I
Morningglory = tested on: Morningglory
Excerpt: (§1) A good grade of top soil is placed in aluminum pans having holes in the bottom and compacted to a depth of 0.95 to 1.27 cm. from the top of the pan. A predetermined number of seeds of each of several dicotyledonous and monocotyledonous annual plant species and/or vegetative propagules for the perennial plant species were placed on the soil and pressed into the soil surface. The seeds and/or vegetative propagules are covered with soil and leveled. The pans are then placed on a sand bench in the greenhouse and watered from below as needed. After the plants reach the desired age (two to three weeks), each pan except for the control pans is removed individually to a spraying chamber and sprayed by means of an atomizer operating at a positive air pressure of approximately 1.46 kg/cm^2 absolute. The atomizer contains 6 ml. of a solution or suspension of the chemical. In that 6 ml., is an amount of a cyclohexanone emulsifying agent mixture to give a spray solution or suspension which contains about 0.4% by weight of the emulsifier. The spray solution or suspension contains a sufficient amount of the candidate chemical in order to give application rates corresponding to those set forth in the tables. The spray solution is prepared by taking an aliquot of a 1.0% by weight stock solution or suspension of the candidate chemical in an organic solvent such as acetone or tetrahydrofuran or in water. The emulsifying agent employed is a mixture comprising 35 weight percent butylamine dodecylbenzene sulfonate and 65 weight percent of a tall oil ethylene oxide condensate having about 11 moles of ethylene oxide per mole of tall oil. The pans are returned to the greenhouse and watered as before and the injury to the plants as compared to the control is observed at approximately two and four weeks as indicated in the tables under WAT and the results recorded. In some instances, the two-week observations are omitted.
(§2) The post-emergent herbicidal activity index used in Tables I and II is as follows: […]

Cocklebur = tested on: Cocklebur
Excerpt: as §1, §2

Quackgrass = tested on: Quackgrass
Excerpt: as §1, §2

Yellow Nutsedge = tested on: Yellow Nutsedge
Excerpt: as §1, §2

Downy Brome = tested on: Downy Brome
Excerpt: as §1, §2

Velvetleaf = tested on: Velvetleaf
Excerpt: as §1, §2

Johnsongrass = tested on: Johnsongrass
Excerpt: as §1, §2

Smartweed = tested on: Smartweed
Excerpt: as §1, §2

Lambsquarters = tested on: Lambsquarters
Excerpt: as §1, §2

Barnyardgrass = tested on: Barnyardgrass
Excerpt: as §1, §2

Canada Thistle = tested on: Canada Thistle
Excerpt: as §1, §2

## CC(C#N)OP(=O)(CNC(C)(C)C)OC(C)C#N (centres unmarked) [Example 4, phosphonic acid, [[(1,1-dimethylethyl)amino]methyl]-,bis(1-cyanoethyl) ester]
Morningglory; 2 WAT, 11.2 kg/h
  post-emergent herbicidal activity index: 0 (0-24% control)
Cocklebur; 2 WAT, 11.2 kg/h
  post-emergent herbicidal activity index: 0 (0-24% control)
Quackgrass; 2 WAT, 11.2 kg/h
  post-emergent herbicidal activity index: 0 (0-24% control)
Yellow Nutsedge; 2 WAT, 11.2 kg/h
  post-emergent herbicidal activity index: 0 (0-24% control)
Downy Brome; 2 WAT, 11.2 kg/h
  post-emergent herbicidal activity index: 0 (0-24% control)
Velvetleaf; 2 WAT, 11.2 kg/h
  post-emergent herbicidal activity index: 0 (0-24% control)
Johnsongrass; 2 WAT, 11.2 kg/h
  post-emergent herbicidal activity index: 0 (0-24% control)
Smartweed; 2 WAT, 11.2 kg/h
  post-emergent herbicidal activity index: 1 (25-49% control)
Lambsquarters; 2 WAT, 11.2 kg/h
  post-emergent herbicidal activity index: 1 (25-49% control)
Barnyardgrass; 2 WAT, 11.2 kg/h
  post-emergent herbicidal activity index: 1 (25-49% control)
Canada Thistle; 2 WAT, 11.2 kg/h
  post-emergent herbicidal activity index: 0 (0-24% control)

## N#CCCOP(=O)(CNCC#N)OCCC#N [Example 11, phosphonic acid, [[(cyanomethyl)amino]-methyl],bis 2-(cyanoethyl)ester]
Morningglory; 2 WAT, 5.6 kg/h
  post-emergent herbicidal activity index: 0 (0-24% control)
Morningglory; 4 WAT, 11.2 kg/h
  post-emergent herbicidal activity index: 2 (50-74% control)
Cocklebur; 2 WAT, 5.6 kg/h
  post-emergent herbicidal activity index: 0 (0-24% control)
Cocklebur; 4 WAT, 11.2 kg/h
  post-emergent herbicidal activity index: 1 (25-49% control)
Quackgrass; 2 WAT, 5.6 kg/h
  post-emergent herbicidal activity index: 0 (0-24% control)
Quackgrass; 4 WAT, 11.2 kg/h
  post-emergent herbicidal activity index: 1 (25-49% control)
Yellow Nutsedge; 2 WAT, 5.6 kg/h
  post-emergent herbicidal activity index: 0 (0-24% control)
Yellow Nutsedge; 4 WAT, 11.2 kg/h
  post-emergent herbicidal activity index: 1 (25-49% control)
Downy Brome; 2 WAT, 5.6 kg/h
  post-emergent herbicidal activity index: 0 (0-24% control)
Downy Brome; 4 WAT, 11.2 kg/h
  post-emergent herbicidal activity index: 0 (0-24% control)
Velvetleaf; 2 WAT, 5.6 kg/h
  post-emergent herbicidal activity index: 0 (0-24% control)
Velvetleaf; 4 WAT, 11.2 kg/h
  post-emergent herbicidal activity index: 0 (0-24% control)
Johnsongrass; 2 WAT, 5.6 kg/h
  post-emergent herbicidal activity index: 0 (0-24% control)
Johnsongrass; 4 WAT, 11.2 kg/h
  post-emergent herbicidal activity index: 0 (0-24% control)
Smartweed; 2 WAT, 5.6 kg/h
  post-emergent herbicidal activity index: 0 (0-24% control)
Smartweed; 4 WAT, 11.2 kg/h
  post-emergent herbicidal activity index: 1 (25-49% control)
Lambsquarters; 2 WAT, 5.6 kg/h
  post-emergent herbicidal activity index: 1 (25-49% control)
Lambsquarters; 4 WAT, 11.2 kg/h
  post-emergent herbicidal activity index: 1 (25-49% control)
Barnyardgrass; 2 WAT, 5.6 kg/h
  post-emergent herbicidal activity index: 0 (0-24% control)
Barnyardgrass; 4 WAT, 11.2 kg/h
  post-emergent herbicidal activity index: 1 (25-49% control)
Canada Thistle; 2 WAT, 5.6 kg/h
  post-emergent herbicidal activity index: 0 (0-24% control)
Canada Thistle; 4 WAT, 11.2 kg/h
  post-emergent herbicidal activity index: 2 (50-74% control)

## CCOC(=O)CNCP(=O)(OC(CC(=O)OCC)C(=O)OCC)OC(CC(=O)OCC)C(=O)OCC (centres unmarked) [Example 14, butanoic acid, 2,2'-[[[(2-ethoxy-2-oxo-ethyl)amino]methyl]phosphinylidene]bis(oxy)-bis-,tetraethyl ester]
Morningglory; 2 WAT, 5.6 kg/h
  post-emergent herbicidal activity index: 0 (0-24% control)
Morningglory; 2 WAT, 11.2 kg/h
  post-emergent herbicidal activity index: 0 (0-24% control)
Morningglory; 2 WAT, 56.0 kg/h
  post-emergent herbicidal activity index: 3 (75-99% control)
Morningglory; 4 WAT, 56.0 kg/h
  post-emergent herbicidal activity index: 2 (50-74% control)
Cocklebur; 2 WAT, 5.6 kg/h
  post-emergent herbicidal activity index: 0 (0-24% control)
Cocklebur; 2 WAT, 11.2 kg/h
  post-emergent herbicidal activity index: 0 (0-24% control)
Cocklebur; 2 WAT, 56.0 kg/h
  post-emergent herbicidal activity index: 4 (100% control)
Cocklebur; 4 WAT, 56.0 kg/h
  post-emergent herbicidal activity index: 4 (100% control)
Quackgrass; 2 WAT, 5.6 kg/h
  post-emergent herbicidal activity index: 0 (0-24% control)
Quackgrass; 2 WAT, 11.2 kg/h
  post-emergent herbicidal activity index: 0 (0-24% control)
Quackgrass; 2 WAT, 56.0 kg/h
  post-emergent herbicidal activity index: 4 (100% control)
Quackgrass; 4 WAT, 56.0 kg/h
  post-emergent herbicidal activity index: 3 (75-99% control)
Yellow Nutsedge; 2 WAT, 5.6 kg/h
  post-emergent herbicidal activity index: 0 (0-24% control)
Yellow Nutsedge; 2 WAT, 11.2 kg/h
  post-emergent herbicidal activity index: 0 (0-24% control)
Yellow Nutsedge; 2 WAT, 56.0 kg/h
  post-emergent herbicidal activity index: 4 (100% control)
Yellow Nutsedge; 4 WAT, 56.0 kg/h
  post-emergent herbicidal activity index: 1 (25-49% control)
Downy Brome; 2 WAT, 5.6 kg/h
  post-emergent herbicidal activity index: 0 (0-24% control)
Downy Brome; 2 WAT, 11.2 kg/h
  post-emergent herbicidal activity index: 0 (0-24% control)
Downy Brome; 2 WAT, 56.0 kg/h
  post-emergent herbicidal activity index: 3 (75-99% control)
Downy Brome; 4 WAT, 56.0 kg/h
  post-emergent herbicidal activity index: 2 (50-74% control)
Velvetleaf; 2 WAT, 5.6 kg/h
  post-emergent herbicidal activity index: 0 (0-24% control)
Velvetleaf; 2 WAT, 11.2 kg/h
  post-emergent herbicidal activity index: 0 (0-24% control)
Velvetleaf; 2 WAT, 56.0 kg/h
  post-emergent herbicidal activity index: 4 (100% control)
Velvetleaf; 4 WAT, 56.0 kg/h
  post-emergent herbicidal activity index: 3 (75-99% control)
Johnsongrass; 2 WAT, 5.6 kg/h
  post-emergent herbicidal activity index: 0 (0-24% control)
Johnsongrass; 2 WAT, 11.2 kg/h
  post-emergent herbicidal activity index: 0 (0-24% control)
Johnsongrass; 2 WAT, 56.0 kg/h
  post-emergent herbicidal activity index: 3 (75-99% control)
Johnsongrass; 4 WAT, 56.0 kg/h
  post-emergent herbicidal activity index: 3 (75-99% control)
Smartweed; 2 WAT, 5.6 kg/h
  post-emergent herbicidal activity index: 0 (0-24% control)
Smartweed; 2 WAT, 11.2 kg/h
  post-emergent herbicidal activity index: 0 (0-24% control)
Smartweed; 2 WAT, 56.0 kg/h
  post-emergent herbicidal activity index: 4 (100% control)
Smartweed; 4 WAT, 56.0 kg/h
  post-emergent herbicidal activity index: 3 (75-99% control)
Lambsquarters; 2 WAT, 5.6 kg/h
  post-emergent herbicidal activity index: 0 (0-24% control)
Lambsquarters; 2 WAT, 11.2 kg/h
  post-emergent herbicidal activity index: 0 (0-24% control)
Lambsquarters; 2 WAT, 56.0 kg/h
  post-emergent herbicidal activity index: 4 (100% control)
Lambsquarters; 4 WAT, 56.0 kg/h
  post-emergent herbicidal activity index: 4 (100% control)
Barnyardgrass; 2 WAT, 5.6 kg/h
  post-emergent herbicidal activity index: 0 (0-24% control)
Barnyardgrass; 2 WAT, 11.2 kg/h
  post-emergent herbicidal activity index: 0 (0-24% control)
Barnyardgrass; 2 WAT, 56.0 kg/h
  post-emergent herbicidal activity index: 4 (100% control)
Barnyardgrass; 4 WAT, 56.0 kg/h
  post-emergent herbicidal activity index: 3 (75-99% control)
Canada Thistle; 2 WAT, 5.6 kg/h
  post-emergent herbicidal activity index: 0 (0-24% control)
Canada Thistle; 2 WAT, 11.2 kg/h
  post-emergent herbicidal activity index: 0 (0-24% control)
Canada Thistle; 2 WAT, 56.0 kg/h
  post-emergent herbicidal activity index: 4 (100% control)
Canada Thistle; 4 WAT, 56.0 kg/h
  post-emergent herbicidal activity index: 1 (25-49% control)
